Data set [1] concerns the target human lactate dehydrogenase 5 (LDHA) (Homo sapiens, UniProt P00338). Briefly: LDHA biochemical assay.
Another data set is described as follows: in vitro. Particulars: human, A673 cells.
In a further data set the test system is CYP. Particulars: cited from earlier work.
For data set [2] the following is noted: cited from earlier work.
In another data set the target is LDHA (Homo sapiens, UniProt P00338). Type of data set: cell-based.
Data set [3] in a line: Mouse pharmacokinetic study. The format is in vivo, CD1 mice. The conditions noted are these: male, CD1, mouse, plasma, iv, 2 mg/kg.
The test system of the next data set is MiaPaCa-2 cells. Particulars: 120 hours.

Each structure is given as a SMILES string. pIC50: −log10 of the molar value.

`O=C(O)c1csc(-n2nc(-c3ccc(F)cc3)cc2O)n1` [Analog 16] gave a pIC50 in data set [1] of 6.82.

For `NS(=O)(=O)c1ccc(Cc2cn(-c3nc(C(=O)O)cs3)nc2-c2ccc(F)c(F)c2)cc1` [Analog 42], in the data set “in vitro”, the IC50 at 48 h is over 57 µM. As for `O=C(O)c1csc(-n2nc(-c3ccccc3)cc2C(F)(F)F)n1` [Analog 5], the CYP inhibition result with CYP was “no appreciable CYP inhibition”. Also, in data set [2], the “stability in human plasma” value is reported as “stable in human plasma”. For the compound `NS(=O)(=O)c1ccc(Cc2c(-c3ccccc3)nn(-c3nc(C(=O)O)cs3)c2CC2CC2)cc1` [Analog 62], at LDHA, the “CETSA: Cellular LDHA stabilization AUC (norm'd)” value was found to be 100.00. In the data set “in vitro”, `COc1ncc(-c2ccc3c(Nc4cc(Oc5cc(F)cc(F)c5)cc(C(=O)O)c4)c(S(=O)(=O)NC4CC4)cnc3c2)c(OC)n1` [Analog 2] displayed an IC50 at 48 h of over 57 µM. On to `NS(=O)(=O)c1ccc(Cc2c(-c3cccc(-c4ccccc4)c3)nn(-c3nc(C(=O)O)cs3)c2C2CC2)cc1` [Analog 61], for which the half-life in data set [3] was 51 min. For the compound `O=C(O)c1csc(-n2nc(-c3ccccc3)cc2O)n1` [Analog 11], the “improvement in potency on replacing CF3 by OH” value in data set [1] is on record as over 100 fold. As for `NS(=O)(=O)c1ccc(Cc2c(-c3cccc(-c4ccccc4)c3)nn(-c3nc(C(=O)O)cs3)c2CC2CC2)cc1` [Analog 63], the “concentration with nearly complete arrest of cell growth” value in the data set on MiaPaCa-2 cells was found to be 20 µM. Besides, the “lowest concentration with effects on cellular proliferation” value in the data set with MiaPaCa-2 cells (dose-response) stood at 250 nM. Regarding `NS(=O)(=O)c1ccc(Cc2cn(-c3nc(C(=O)O)cs3)nc2-c2cccc(-c3ccccc3)c2)cc1` [Analog 44], the “CETSA: Cellular LDHA stabilization Max stab. (norm'd)” value on LDHA (A673 cells, Western blot band intensity scaled to maximum response of 44) is 100.0.

Broadly, the pIC50 is −log10 of the IC50, conventionally taken in molar units. For orientation: IC50 means the midpoint of a concentration-inhibition curve. The low end stands for greater potency, the high end for weaker potency. In general, half-life refers to how long it takes for the measured level to halve.

Source of the values: publication PMC5894102 (Journal of medicinal chemistry, 2017).
